In patent US4918099A, “Drug, preparation and use thereof” (priority 1985, dated 1990):
“Also recorded” adds a separate entry of the source. Like-named read-outs stand apart in the source and are kept apart here.

Tests used:
[1] = Comparison of synthetic substances with full extract; conditions: synthetically prepared substance
[2] = Rev. Latinoam. Microbiol. 1, 225-232 (1958); cited from earlier work
plasmalipid = conditions: spontaneously hypertensive rats; Fette-Seifen-Anstrichmittel 87, 74-76 (1985); cited from earlier work
[3] = tested on: erythrocyte deformability; experiment: Erythrocyte deformability (filtration rate of blood); format: in vivo, rats
Method: (§1) Increased blood viscosity and reduced erythrocyte deformability are typical pathological states of diabetic subjects. The effect of brazilin administration to diabetic laboratory animals (rats) on the blood viscosity and erythrocyte deformability of these animals was examined.
(§2) For administering brazilin, the laboratory animals were daily injected intraperitoneally with a dose of 100 mg of brazilin per kg body weight for 10 days. For inducing diabetes, a dose of 175 mg of alloxan per kg body weight was administered intraperitoneally.
For determining the erythrocyte deformability, the filtration rate of blood of the various laboratory animals containing approximately 4.9×10^12 erythrocytes per l was determined under common, standardized conditions.

insulin receptors = experiment: 125I-insulin binding to erythrocytes of brazilin treated diabetic mice
Method: For interpreting these findings, further tests were made with the aim to find out whether brazilin changes the affinity of the insulin receptors or can possibly increase the number of the insulin receptors.
From the laboratory animals of the above-mentioned control group (diabetic mice) and the test group (diabetic brazilin treated mice) erythrocytes (2.6×10^9 /ml) were taken, ^125 I-insulin was bound thereto (85 pM^125 I), and thereupon incubated in the presence of increasing amounts of unlabelled insulin (32 pM to 1.8 / μm) at 15° C. for 120 min. The amount of specifically bound ^125 I-insulin was then determined by subtracting the non-specifically bound insulin (10 ng/ml). The results obtained are shown in the graph of FIG. 6.

[4] = tested on: lipid peroxidation in the mitochondria of rat liver; conditions: Arch. Pharm. Res. 7, 63-64, 1984; cited from earlier work
lysosomal glycosidases = experiment: Normalizing effect on lysosomal glycosidases (overall); format: in vivo; conditions: kidney, diabetic mice
Excerpt: (§3) Possibly, the lysosomal glycosidases active in the kidneys are involved in the micro-angiopathy accompanying diabetes mellitus. Therefore, the lysosomal glycosidase activities upon administration of brazilin and full extract were examined.
(§4) A number of mice was divided into three groups. Group I, which was used as control group, remained untreated. To the rest of the mice diabetes was induced by administering alloxan. Part of these diabetic mice remained untreated (diabetic control group II); to the rest of the diabetic mice a dose of 100 mg of brazilin per kg body weight was administered daily. After a test period of 10 and 30 days, respectively, kidney tissue was taken from the laboratory animals and the enzyme fraction was determined. In particular, incubation was carried out for 30 min at 37° C., the reaction was stopped by adding 0.05M glycine-NaOH buffer solution (pH 10.4), centrifugation was carried out at 3000 U/min for 10 min, and the amount of p-nitrophenol formed per min and per mg of protein was determined spectrophotometrically at 410 nm at the supernatant.

[5] = Increase of the peripheral insulin action in diabetic mice; format: in vivo
Method: Diabetic mice were divided into a control group and a test group. A dose of 100 mg of brazilin per kg body weight was daily administered to the animals of the test group; instead of brazilin, the same amount of saline solution was injected intraperitoneally to the animals of the control group.
After 30 test days, the body weight of the animals of the test group was higher and the blood sugar values of these animals were lower as compared to the diabetic animals of the control group.
On the 30th test day, the animals were made to fast for 5 h; thereupon, they were injected intravenously with 0.46 mU/g of NPH insulin. Then, the blood sugar values were measured at respective intervals of 5 min.

[6] = tested on: fat pads isolated from rats; experiment: Glucose oxidation: formation of 14CO2 in fat pads isolated from rats; format: in vivo
Excerpt: Insulin-dependent diabetes mellitus is frequently accompanied by insulin resistance. Frequently an impaired insulin action is also observed with streptozotocin induced diabetic rats. Such an insulin resistance is particularly also attributed to postreceptor defects.
With (a) untreated (normal) control animals (rats), (b) diabetic rats, and (c) diabetic brazilin treated rats glucose oxidation and lipogenesis were investigated (by means of the esterified lipids and the free fatty acids). Diabetes was induced by intravenous administration of streptozotocin (40 mg/kg live weight). Brazilin was administered intraperitoneally for 15 days (100 mg/kg body weight). Within the same period the same volume of saline solution was administered to the untreated animals of the control group.
For determining the effects of brazilin administration on the glucose oxidation, the method described by Winegard et al. (J. Biol. Chem. 233, 267 (1958)) was used, using ^14 C glucose (1-^14 C-glucose).

blood viscosity = experiment: Blood viscosity; format: in vivo, rats
Method: as §1, §2
The blood viscosity was determined by means of heparinized blood samples relative to distilled water at 37°±0.5° C. The time interval required by 2 ml of liquid to pass between two points of a narrow glass capillary was determined.

β-glucuronidase = experiment: Lysosomal enzyme activity in kidney tissue; format: in vivo, mice
Excerpt: as §3, §4

[7] = tested on: platelet aggregation in normal human plasma; experiment: Platelet aggregation in normal human plasma induced by ADP; format: cell-based; conditions: for T/min, Aggregation (first value) / Tmax, Aggregation (first value): control 75.1; for activity at 1000 µM / inhibition at 1000 µM / activity at 100 µM / inhibition at 100 µM: Homo sapiens, Platelet; for activity at 1000 µM / activity at 100 µM: control 100
Method: The platelet aggregation was determined by a tubimetric method in a dual-channel aggregometer, assuming that a platelet-poor plasma represented 100% aggregation and that a platelet-rich plasma represented 0% aggregation. Each aggregometer tube was charged with 40 μl of platelet-rich plasma and 50 μl of test sample solution. The mixture was incubated at 37° C. for 2 min., whereupon 50 μl of ADP solution were added. Percent inhibition of the platelet aggregation caused by the test sample solution was calculated as follows: [formula]

[8] = diabetic rats vs. control group
[9] = diabetic mice, 100 mg/kg daily, 30 days

In the case of `Oc1ccc2c(c1)OC[C@]1(O)Cc3cc(O)c(O)cc3[C@H]21` [brazilin], the “effects compared with administration of major amounts of full extract” value [1] is listed as “substantially has the same effects”, the antibacterial effect [2] is listed as “antibacterial effect” and the plasmalipid-reducing effect (plasmalipid) is listed as “plasmalipid-reducing effect”. For the same compound, the Filtration rate ([3]; alloxan diabetic rats + brazilin, P < 0.01 vs. untreated and vs. diabetic control (17.4)) was 19.6 ± 0.4 mL/min, the “effect on filtration rate of diabetic animals” value ([3]; diabetic rats + brazilin) was “significant increase of the filtration rate” and the “effect on erythrocyte deformability” value [3, 8] was “significant increase of the erythrocyte deformability”. The Filtration rate ([3]; normal rats + brazilin 100 mg/kg i.p. 10 days, normal 22.9) was 23.1 ± 0.3 mL/min, the “effect on filtration rate of normal animals” value ([3]; untreated control group + brazilin) was “did not signficantly influence the filtration rate” and the “affinity of the insulin receptors” value (insulin receptors; erythrocytes, 15° C., 120 min, treated vs. control (FIGS. 6, 7)) was “no significant affinity differences”. The “number of insulin receptors” value (insulin receptors; peripheral erythrocytes, treated vs. control) was “increase of the number of the peripheral insulin receptors”, the “effect on lipid peroxidation in mitochondria of rat liver” value [4] was “effect on the lipid peroxidation” and the “effect on the lysosomal glycosidase activity” value (lysosomal glycosidases) was “normalizing effect”. The “blood sugar after i.v. NPH insulin” value ([5]; brazilin treated diabetic mice, 0.46 mU/g NPH insulin, day 30, 5 h fasted (FIG. 5)) was “marked decrease of the blood sugar values”, the “blood sugar values vs. diabetic control” value [5, 9] was “lower” and the “body weight vs. diabetic control” value [5, 9] was “higher”. The “restoration of initial CO2 production, basal” value ([6]; diabetic rats + brazilin) was 74.6%, the “Glucose→CO2, basal” value ([6]; diabetic rats + brazilin 100 mg/kg i.p. 15 days, n=8, P < 0.01 vs. diabetic control, diabetic 109.1, normal 172.8) was 156.6 ± 14.7 nmol/100 mg tissue/120 min and the “restoration of initial CO2 production, insulin stimulated” value ([6]; diabetic rats + brazilin, insulin 25 ng/ml) was 14.5%. For the same compound, the “Glucose→CO2, insulin stimulated” value ([6]; insulin 25 ng/ml, diabetic rats + brazilin, n=8, P < 0.1 vs diabetic control, diabetic 236.6, normal 694.2) was 303.1 ± 19.0 nmol/100 mg tissue/120 min, the Viscosity (blood viscosity; alloxan diabetic rats + brazilin, P < 0.05 vs. diabetic control (1.62)) was 1.52 ± 0.07 cP and the “effect on blood viscosity of diabetic animals” value (blood viscosity; [8]) was “significant decrease of the blood viscosity; also recorded: significant decrease (P<0.05) of blood viscosity”. For the same compound, the “effect on blood viscosity of normal animals” value (blood viscosity; normal + brazilin vs. normal) was “No statistical differences”, the Viscosity (blood viscosity; normal rats + brazilin 100 mg/kg i.p. 10 days, 37° C., normal 1.45) was 1.40 ± 0.06 cP and the β-glucuronidase activity (β-glucuronidase; after 10 days, p < 0.025 vs. Group II (3.33), Group I 4.82) was 4.02 ± 0.65. For the same compound, the β-glucuronidase activity (β-glucuronidase; after 30 days, p < 0.05 vs. Group II (2.31), Group I 2.26) was 2.49 ± 0.25, the “T/min, Aggregation (first value)” value ([7]; 10^-3 M) was 21.1% and the “Tmax, Aggregation (first value)” value ([7]; 10^-3 M) was 31.5%. For the same compound, the “T/min, Aggregation (first value)” value ([7]; 10^-4 M) was 34.8%, the “Tmax, Aggregation (first value)” value ([7]; 10^-4 M) was 60.7% and the activity at 1000 µM ([7]; 10^-3 M, read-out: T/min, Aggregation relative to control (second value)) was 28.1%. It also gave an activity at 1000 µM ([7]; 10^-3 M, read-out: Tmax, Aggregation relative to control (second value)) of 41.8%, an inhibition at 1000 µM ([7]; 10^-3 M, read-out: T/min, Inhibition) of 71.9% and an inhibition at 1000 µM ([7]; 10^-3 M, read-out: Tmax, Inhibition) of 58.2%. The activity at 100 µM ([7]; 10^-4 M, read-out: T/min, Aggregation relative to control (second value)) was 46.4%, the activity at 100 µM ([7]; 10^-4 M, read-out: Tmax, Aggregation relative to control (second value)) was 80.1% and the inhibition at 100 µM ([7]; 10^-4 M, read-out: T/min, Inhibition) was 53.6%. The inhibition at 100 µM ([7]; 10^-4 M, read-out: Tmax, Inhibition) was 19.9%.
